Counter-ions that a name gives are not always drawn.

The subject of data set [1] is U87 cells stably expressing CD4 and the chemokine receptor CCR5. Briefly: HIV-1 entry assay (luciferase reporter virions). It is filed as cell-based. As to conditions: Human immunodeficiency virus 1, U87/CD4/CCR5, read-out: Viral Entry IC50. The method, then:
Several types of assays can be used to determine the CCR5 inhibitory and antagonistic activity of the compounds of the invention. Some are, for example, the CCR5 Membrane Binding Assay, the HIV-1 Entry Assay, HIV-1 Replication Assay, the Calcium Flux Assay, the GTPγS Binding Assay (secondary membrane binding assay) and the Chemotaxis Assay. Compounds of this invention were evaluated for their ability to inhibit CCR5 receptor mediated viral entry using an HIV-1 entry assay, which is described below:
Replication defective HIV-1 reporter virions are generated by cotransfection of a plasmid encoding the NL4-3 strain of HIV-1 (which has been modified by mutation of the envelope gene and introduction of a luciferase reporter plasmid) along with a plasmid encoding one of several HIV-1 envelope genes as described by Connor et al, Virology, 206 (1995), 935-944. Following transfection of the two plasmids by calcium phosphate precipitation, the viral supernatants are harvested on day 3 and a functional viral titer determined. These stocks are then used to infect U87 cells stably expressing CD4 and the chemokine receptor CCR5 which have been preincubated with or without test compound. Infections are carried out for 2 hours at 37° C., the cells washed and media replaced with fresh media containing compound. The cells are incubated for 3 days, lysed and luciferase activity determined. […]

On to `CCON=C(c1ccc(C(F)(F)F)cc1)N1CCN(C2(C)CCN(C(=O)c3c(C)ncnc3C)CC2)C[C@@H]1C` [Ih, 1-[(4,6-dimethyl-5-pyrimidinyl)carbonyl]-4-[4-[(ethoxyimino)[4-(trifluoromethyl)phenyl]methyl]-3(s)-methyl-1-piperazinyl]-4-methylpiperidine], for which the IC50 (in general, the point on the concentration scale where inhibition reaches its midpoint) in data set [1] is 16.5 nM.

Regarding `CCON=C(c1ccc(OC(F)(F)F)cc1)N1CCN(C2(C)CCN(C(=O)c3c(C)ncnc3C)CC2)C[C@@H]1C` (as salt: HCl), the melting point (commonly the temperature, or range, at which the solid turns liquid) is 165 to 169 °C.
